Experimental data as given in patent US20090181392A1, “Transgenic Zebrafish Models for Neurodegenerative Diseases” (priority 2001, published 2009).
Entries after “also recorded” stand apart in the source; their conditions may differ.

Test system: dopaminergic neurons in zebrafish embryos
Experiment: MPTP neurotoxicity and neuroprotection in zebrafish embryos, whole mount in situ hybridization with tyrosine hydroxylase probe
Type: in vivo, zebrafish (Danio rerio)
Conditions: for protection of neurons from MPTP-induced damage: coculture/coincubation of embryos with MPTP 10 μg/mL (43 μM)
Method: Mating pairs of adult zebrafish are placed in mating cages in the evening. The following morning, eggs are collected from the bottom of the mating cage and fertile embryos are placed in fresh fish water. At the end of the day, (embryos should be at the late gastrulation stage) phenylthiourea (PTU, Sigma-Aldrich) is added to a final concentration of 0.003% to prevent formation of pigment. At approximately 24 hours past fertilization (hpf), embryos are transferred to a 24 or 96 well plate for treatment in different concentrations of neurotoxins. Zebrafish embryos at this stage in development have completed much of their brain development and primary neurogenesis (Kimmel, et al., 1995). Motor neurons and some dopaminergic neurons are detectable at this stage (Eisen, et al., 1986; Guo, et al., 1999).
Initial concentrations of neurotoxins, including MPTP, hydroxydopamine, NMDA and THA (all purchased from Sigma-Aldrich), are determined based on the concentrations administered to goldfish (Goping, et al., 1995) and that used in cultured spinal cord explant experiments (Rothstein, et al., 1993; Annis and Vaugn, 1998). One of skill can adjust the concentrations depending on the level of neuronal damage desired and the time frame for neuronal damage.
After embryos are secured in plates with lids, plates are transferred to an incubator, preset to 28.5° C., the optimal temperature for zebrafish development. At different time points (1, 2, and 3 days after treatment), untreated embryos and embryos treated with MPTP or hydroxydopamine are fixed in 4% paraformaldehyde and prepared for in situ hybridization and/or immunohistochemistry.
In situ hybridization is performed as described by Thisse, et al. (1993). A plasmid containing a partial cDNA sequence encoding tyrosine hydroxylase was obtained from A. Rosenthal (Guo, et al., 1999). An antisense RNA probe to this gene can be synthesized by in vitro transcription, incorporating digoxygenin-labeled UTP (Roche Molecular Biochemicals). Embryos are hybridized with probe overnight at 70 degrees in 50% formamide buffer. After several washes, embryos are incubated overnight with an antibody to digoxygenin conjugated to alkaline phosphatase (Roche Molecular Biochemicals). […]
This study is performed essentially as described above, except that neuroprotective drugs (levodopa, deprenyl, and D-AP5, Sigma-Aldrich) are added to the embryo cultures at selected time points, both concurrently with neurotoxins and after neurotoxins have exerted their effects. Initial concentrations are determined based on that used in goldfish and tissue culture expeirments. Again, results are measured by examination of neurons in both a qualitative and quantitative manner, as described above. […]

`C#CCN(C)[C@H](C)Cc1ccccc1` [L-deprenyl] was tested. Which “protection of neurons from MPTP-induced damage” value did it give?
Its value is “MPTP-induced damage can be prevented”.

And the “protection of neurons from MPTP-induced damage” value (listed as deprenyl)?
The value was “protects neurons”.

`CN1CC=C(c2ccccc2)CC1` [MPTP, 1-methyl-4-phenyl-1,2,3,6-tetrahydropyridine] was tested. Which “effect on non-dopaminergic cell populations” value (MPTP 10 μg/mL (43 μM), 5 day old embryo, tyrosine hydroxylase in situ hybridization (FIG. 2)) did it give?
Its value is “unchanged”.

And the “effect on dopaminergic neurons / dopaminergic populations” value (MPTP 10 μg/mL (about 43 μM), embryos soaked, 5 day old embryo, tyrosine hydroxylase in situ hybridization (FIG. 2))?
The value was “destroys dopaminergic populations; also recorded: significantly reduced”.
